Source: patent US20240292840A1, “TRIAZOLE COMPOUNDS FOR THE CONTROL OF INVERTEBRATE PESTS” (priority 2021, published 2024)

Columns and labels:
[1] = test system: Boll Weevil (Anthonomus grandis); assay: B.5 Boll weevil egg/larval test on insect diet in microtiter plates; assay type: in vivo; conditions: 120 h, egg and larval mortality, 5 days, read-out: mortality in comparison with untreated controls
Method: B.5 Boll Weevil (Anthonomus grandis)
For evaluating control of boll weevil (Anthonomus grandis), the test unit consisted of 96-well-microtiter plates containing an insect diet and 5-10 A. grandis eggs.
The compounds were formulated using a solution containing 75% v/v water and 25% v/v DMSO. Different concentrations of formulated compounds were sprayed onto the insect diet at 5 μl, using a custom-built micro atomizer, at two replications.
After application, microtiter plates were incubated at about 25±1° C. and about 75±5% relative humidity for 5 days. Egg and larval mortality was then visually assessed.

[2] = test system: Yellow Fever Mosquito (Aedes aegypti); assay: whole plant or invertebrate; assay type: in vivo; conditions: 48 h, larval mortality, 2 days, read-out: mortality in comparison with untreated controls
Method: B.8 Yellow Fever Mosquito (Aedes aegypti)
For evaluating control of yellow fever mosquito (Aedes aegypti) the test unit consisted of 96-well-microtiter plates containing 200 μl of tap water per well and 5-15 freshly hatched A. aegypti larvae.
The active compounds were formulated using a solution containing 75% (v/v) water and 25% (v/v) DMSO. Different concentrations of formulated compounds or mixtures were sprayed onto the insect diet at 2.5 μl, using a custom-built micro atomizer, at two replications.
After application, microtiter plates were incubated at 28±1° C., 80±5% RH for 2 days. Larval mortality was then visually assessed.

Compound	mortality at 2500 ppm [1]	mortality at 2500 ppm [2]
C/C(=N/O)n1ncnc1C(C)NC(=O)c1cc(C(F)(F)F)cc(C(F)(F)F)c1 (centres unmarked) [I.1-1, N-[1-[2-[(Z)—N-hydroxy-C-methyl-carbonimidoyl]-1,2,4-triazol-3-yl]ethyl]-3,5-bis(trifluoromethyl)benzamide]	≥ 75%	–
CCON=C(C)n1ncnc1C(C)NC(=O)c1cc(Cl)cc(C(F)(F)F)c1 (centres unmarked) [I.1-12, 3-chloro-N-[1-[2-(N-ethoxy-C-methyl-carbonimidoyl)-1,2,4-triazol-3-yl]ethyl]-5-(trifluoromethyl)benzamide]	≥ 75%	≥ 75%
CC(=NOc1ccccc1)n1ncnc1C(C)NC(=O)c1cc(Cl)cc(C(F)(F)F)c1 (centres unmarked) [I.1-13, 3-chloro-N-[1-[2-[C-methyl-N-phenoxy-carbonimidoyl]-1,2,4-triazol-3-yl]ethyl]-5-(trifluoromethyl)benzamide]	–	≥ 75%
C/C(=N\O)n1ncnc1C(C)NC(=O)c1cc(C(F)(F)F)cc(C(F)(F)F)c1 (centres unmarked) [I.1-76, N-[1-[2-[(E)-N-hydroxy-C-methyl-carbonimidoyl]-1,2,4-triazol-3-yl]ethyl]-3,5-bis(trifluoromethyl)benzamide]	≥ 75%	–
